Assay results from ChEMBL document CHEMBL1146284, “Antitumor activity of the marine natural product dibromophakellstatin in vitro” (Bioorg Med Chem Lett, 2007).

Tests used:
Type in all cases: functional, cell-based
[1] = Antiproliferative activity against human MEXF 394NL cells
[2] = Antiproliferative activity against human OVXF 899L cells
[3] = tested on: SF-268; experiment: Antiproliferative activity against human SF268 cells
[4] = Antiproliferative activity against human CNXF 498NL cells
[5] = Antiproliferative activity against human LXF 529L cells
[6] = Antiproliferative activity against human LXF 629L cells
[7] = tested on: NCI-H460; experiment: Antiproliferative activity against human H460 cells
[8] = Antiproliferative activity against human MAXF 401NL cells
[9] = tested on: MCF7; experiment: Antiproliferative activity against human MCF7 cells
[10] = Antiproliferative activity against human MEXF 276L cells; conditions: MEXF276L
[11] = Antiproliferative activity against human MEXF 462NL cells
[12] = Antiproliferative activity against human MEXF 514NL cells
[13] = Antiproliferative activity against human MEXF 520L cells
[14] = Antiproliferative activity against human OVXF 1619L cells
[15] = Antiproliferative activity against human BXF 1218L cells
[16] = tested on: T-24; experiment: Antiproliferative activity against human T24 cells
[17] = tested on: HCT-116; experiment: Antiproliferative activity against human HCT116 cells
[18] = tested on: HT-29; experiment: Antiproliferative activity against human HT29 cells
[19] = Antiproliferative activity against human GXF 251L cells
[20] = Antiproliferative activity against human HNXF 536L cells
[21] = Antiproliferative activity against human LXF 1121L cells
[22] = Antiproliferative activity against human LXF 289L cells
[23] = Antiproliferative activity against human LXF 526L cells
[24] = tested on: OVCAR-3; experiment: Antiproliferative activity against human OVCAR-3 cells
[25] = Antiproliferative activity against human PAXF 1675L cells
[26] = tested on: PANC-1; experiment: Antiproliferative activity against human PANC1 cells
[27] = tested on: CWR22R; experiment: Antiproliferative activity against human 22RV1 cells
[28] = tested on: DU-145; experiment: Antiproliferative activity against human DU145 cells
[29] = tested on: LNCaP; experiment: Antiproliferative activity against human LNCAP cells
[30] = Antiproliferative activity against human PC3M cells; conditions: PC-3M
[31] = Antiproliferative activity against human PXF 1752L cells
[32] = Antiproliferative activity against human RXF 1781L cells
[33] = Antiproliferative activity against human RXF 393NL cells
[34] = Antiproliferative activity against human RXF 486NL cells […]
[35] = Antiproliferative activity against human RXF 944NL cells
[36] = Antiproliferative activity against human UXF 1138L cells

For `O=C1N[C@H]2n3c(cc(Br)c3Br)C(=O)N3CCC[C@]23N1`, the IC50 ([1]; mexf 394nl) was > 10 µM, the IC50 ([2]; ovxf 899l) was > 10 µM and the IC50 ([3]; sf-268) was > 10 µM. For the same compound, the IC50 ([4]; cnxf 498nl) was > 10 µM and the IC50 ([5]; lxf 529l) was > 10 µM.

In the case of `O=C1NC2n3c(cc(Br)c3Br)C(=O)N3CCCC23N1` (racemic), the IC50 [6] is reported as > 10 µM, the IC50 [7] is reported as > 10 µM and the IC50 [8] is reported as > 10 µM. For the same compound, the IC50 [9] was > 10 µM, the IC50 [10] was > 10 µM and the IC50 ([1]; Homo sapiens, MEXF 394NL) was 1.37 µM. For the same compound, the IC50 [11] was > 10 µM, the IC50 [12] was 4.41 µM and the IC50 [13] was > 10 µM. The IC50 [14] was 2.23 µM, the IC50 ([2]; Homo sapiens, OVXF 899L) was 0.6 µM and the IC50 [15] was > 10 µM. The IC50 [16] was > 10 µM, the IC50 ([3]; Homo sapiens, SF-268) was 2.28 µM and the IC50 [17] was > 10 µM. For the same compound, the IC50 [18] was > 10 µM, the IC50 [19] was > 10 µM and the IC50 ([4]; Homo sapiens, CNXF 498NL) was 0.93 µM. The IC50 [20] was > 10 µM, the IC50 [21] was > 10 µM and the IC50 [22] was > 10 µM. For the same compound, the IC50 [23] was > 10 µM, the IC50 ([5]; Homo sapiens, LXF 529L) was 0.96 µM and the IC50 [24] was > 10 µM. For the same compound, the IC50 [25] was > 10 µM, the IC50 [26] was 4.06 µM and the IC50 [27] was > 10 µM. The IC50 [28] was > 10 µM, the IC50 [29] was > 10 µM and the IC50 [30] was 2.42 µM. The IC50 [31] was > 10 µM, the IC50 [32] was > 10 µM and the IC50 [33] was > 10 µM. The IC50 [34] was > 10 µM, the IC50 [35] was > 10 µM and the IC50 [36] was 1.21 µM.

With `O=C1c2cc(Br)c(Br)n2C2C(Cl)(Cl)C23CCCN13` (racemic) the IC50 ([1]; Homo sapiens, MEXF 394NL) was 7.87 µM, the IC50 ([2]; Homo sapiens, OVXF 899L) was 5.37 µM and the IC50 ([3]; Homo sapiens, SF-268) was 3.91 µM. The IC50 ([4]; Homo sapiens, CNXF 498NL) was 5.84 µM and the IC50 ([5]; Homo sapiens, LXF 529L) was 9.84 µM.

For `CCOC(=O)N1C(=O)N(OS(=O)(=O)c2ccc(C)cc2)C23CCCN2C(=O)c2cc(Br)c(Br)n2C13` (racemic), the IC50 [6] was 6.52 µM, the IC50 [7] was > 10 µM and the IC50 [8] was 8.16 µM. The IC50 [9] was > 10 µM, the IC50 [10] was 9.44 µM and the IC50 ([1]; Homo sapiens, MEXF 394NL) was 4.02 µM. For the same compound, the IC50 [11] was > 10 µM, the IC50 [12] was > 10 µM and the IC50 [13] was > 10 µM. For the same compound, the IC50 [14] was 4.83 µM, the IC50 ([2]; Homo sapiens, OVXF 899L) was 8.89 µM and the IC50 [15] was 7.42 µM. The IC50 [16] was 9.98 µM, the IC50 ([3]; Homo sapiens, SF-268) was 6.45 µM and the IC50 [17] was > 10 µM. For the same compound, the IC50 [18] was > 10 µM, the IC50 [19] was > 10 µM and the IC50 ([4]; Homo sapiens, CNXF 498NL) was > 10 µM. The IC50 [20] was 7.24 µM, the IC50 [21] was > 10 µM and the IC50 [22] was > 10 µM. For the same compound, the IC50 [23] was 7.96 µM, the IC50 ([5]; Homo sapiens, LXF 529L) was > 10 µM and the IC50 [24] was > 10 µM. The IC50 [25] was > 10 µM, the IC50 [26] was 5 µM and the IC50 [27] was > 5.92 µM. The IC50 [28] was > 10 µM, the IC50 [29] was > 10 µM and the IC50 [30] was 8.6 µM. The IC50 [31] was > 10 µM, the IC50 [32] was > 10 µM and the IC50 [33] was > 10 µM. The IC50 [34] was > 10 µM, the IC50 [35] was 6.3 µM and the IC50 [36] was 8.96 µM.

With `CN1C(=O)c2cc(Br)c(Br)n2C2C1C2(Cl)Cl` (racemic) the IC50 ([1]; Homo sapiens, MEXF 394NL) was 1.35 µM, the IC50 ([2]; Homo sapiens, OVXF 899L) was > 10 µM and the IC50 ([3]; Homo sapiens, SF-268) was > 10 µM. For the same compound, the IC50 ([4]; Homo sapiens, CNXF 498NL) was > 10 µM and the IC50 ([5]; Homo sapiens, LXF 529L) was > 10 µM.

For `O=C1N[C@H]2n3c(cc(Br)c3Br)C(=O)N3CCC[C@]23N1` [DIBROMOPHAKELLSTATIN], the IC50 ([1]; mexf 394nl) was 1.35 µM, the IC50 ([2]; ovxf 899l) was 0.05 µM and the IC50 ([3]; sf-268) was 0.55 µM. For the same compound, the IC50 ([4]; cnxf 498nl) was 0.72 µM and the IC50 ([5]; lxf 529l) was 1.62 µM.
